Assays:
[1] = target: T1, GLS1 (purified recombinant human GAC) (Homo sapiens, UniProt O94925); experiment: GLS1 enzymatic activity assay (dual-coupled, Amplex UltraRed/resorufin); type: biochemical
T1 sequence (O94925 55-598 isoform O94925-3 limits assumed): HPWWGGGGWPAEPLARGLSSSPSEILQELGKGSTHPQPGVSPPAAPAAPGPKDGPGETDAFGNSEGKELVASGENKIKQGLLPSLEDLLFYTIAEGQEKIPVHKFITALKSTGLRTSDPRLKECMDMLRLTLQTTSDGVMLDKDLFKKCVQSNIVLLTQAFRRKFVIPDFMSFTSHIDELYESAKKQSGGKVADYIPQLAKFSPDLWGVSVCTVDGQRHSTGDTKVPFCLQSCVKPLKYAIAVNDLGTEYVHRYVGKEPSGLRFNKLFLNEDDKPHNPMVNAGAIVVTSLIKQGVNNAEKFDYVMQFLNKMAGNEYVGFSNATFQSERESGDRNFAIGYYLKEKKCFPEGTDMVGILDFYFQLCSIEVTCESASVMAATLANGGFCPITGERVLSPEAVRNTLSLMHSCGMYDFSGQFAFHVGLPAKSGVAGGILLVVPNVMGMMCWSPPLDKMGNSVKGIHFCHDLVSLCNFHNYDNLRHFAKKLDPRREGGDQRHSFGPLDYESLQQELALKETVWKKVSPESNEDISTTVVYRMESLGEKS
In short: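 GAC activity measured by coupling glutamate to glutamate oxidase and HRP, generating resorufin from Amplex UltraRed. Enzyme (2 nM) preincubated with 50 mM potassium phosphate 10 min at room temperature, then inhibitor 10 min; 1 mM glutamine substrate, 1% DMSO. Fluorescence 530/590 nm, kinetic or 20-min endpoint; IC50 from four-parameter logistic fit.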

A549 cells = experiment: A549 proliferation (viability) assay, Cell Titer Fluor, 72 hours; type: cell-based; settings: Homo sapiens
In short: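 Compound exposure lasted 72 h (final DMSO 0.5% v/v) on A549 cells plated at 1000 cells/well one day earlier. Cell Titer Fluor added, 30 min at 37 °C, fluorescence read; EC50 derived by four-parameter logistic curve fitting.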

| IC50 [1] [nM] | EC50 (A549 cells) [nM] | Structure (SMILES) |
| --- | --- | --- |
| < 100 | < 100 | O=C(Cc1ccccc1)Nc1ccn(CCCCc2nnc(C(=O)NCc3cc(OC(F)(F)F)ccc3F)s2)c(=O)c1 [Example 458, N-{[2-fluoro-5-(trifluoromethoxy)phenyl]methyl}-5-{4-[2-oxo-4-(2-phenylacetamido)-1,2-dihydropyridin-1-yl]butyl}-1,3,4-thiadiazole-2-carboxamide] |
| < 100 | < 100 | O=C(Cc1cccc(OC(F)(F)F)c1)Nc1ccn(CCCCc2nnc(C(=O)NCc3cc(OC(F)(F)F)ccc3F)s2)c(=O)c1 [Example 459, N-{[2-fluoro-5-(trifluoromethoxy)phenyl]methyl}-5-[4-(2-oxo-4-{2-[3-(trifluoromethoxy)phenyl]acetamido}-1,2-dihydropyridin-1-yl)butyl]-1,3,4-thiadiazole-2-carboxamide] |
| < 100 | < 100 | O=C(CC1CCCCC1)Nc1ccn(CCCCc2nnc(C(=O)NCc3cc(OC(F)(F)F)ccc3F)s2)c(=O)c1 [Example 460, 5-{4-[4-(2-cyclohexylacetamido)-2-oxo-1,2-dihydropyridin-1-yl]butyl}-N-{[2-fluoro-5-(trifluoromethoxy)phenyl]methyl}-1,3,4-thiadiazole-2-carboxamide] |
| < 100 | 500 to 5000 | O=C(Cc1ccccn1)Nc1ccn(CCCCc2nnc(C(=O)NCc3cc(OC(F)(F)F)ccc3F)s2)c(=O)c1 [Example 461, N-{[2-fluoro-5-(trifluoromethoxy)phenyl]methyl}-5-(4-{2-oxo-4-[2-(pyridin-2-yl)acetamido]-1,2-dihydropyridin-1-yl}butyl)-1,3,4-thiadiazole-2-carboxamide] |
| 100 to 500 | 100 to 500 | Cc1ccc(CNC(=O)c2nnc(CCCCn3ccc(NC(=O)CN4CCCCC4)c(F)c3=O)s2)cn1 [Example 462, 5-(4-{3-fluoro-2-oxo-4-[2-(piperidin-1-yl)acetamido]-1,2-dihydropyridin-1-yl}butyl)-N-[(6-methylpyridin-3-yl)methyl]-1,3,4-thiadiazole-2-carboxamide] |
| 100 to 500 | 100 to 500 | Cc1ccc(CNC(=O)c2nnc(CCCCn3ccc(NC(=O)C(=O)N4CCCCC4)c(F)c3=O)s2)cn1 [Example 463, 5-(4-{3-fluoro-2-oxo-4-[2-oxo-2-(piperidin-1-yl)acetamido]-1,2-dihydropyridin-1-yl}butyl)-N-[(6-methylpyridin-3-yl)methyl]-1,3,4-thiadiazole-2-carboxamide] |
| < 100 | < 100 | Cc1ccc(CNC(=O)c2nnc(CCCCn3ccc(NC(=O)CC4CCC4)c(F)c3=O)s2)cn1 [Example 464, 5-(4-(4-(2-cyclobutylacetamido)-3-fluoro-2-oxopyridin-1(2H)-yl)butyl)-N-((6-methylpyridin-3-yl)methyl)-1,3,4-thiadiazole-2-carboxamide] |
| < 100 | < 100 | O=C(CC1CCC1)Nc1ccn(CCCCc2nnc(C(=O)NCc3cc(C(F)(F)F)ccn3)s2)c(=O)c1F [Example 465, 5-{4-[4-(2-cyclobutylacetamido)-3-fluoro-2-oxo-1,2-dihydropyridin-1-yl]butyl}-N-{[4-(trifluoromethyl)pyridin-2-yl]methyl}-1,3,4-thiadiazole-2-carboxamide] |
| < 100 | 100 to 500 | O=C(Nc1ccn(CCCCc2nnc(C(=O)NCc3cc(C(F)(F)F)ccn3)s2)c(=O)c1F)C(=O)N1CCCCC1 [Example 466, 5-(4-{3-fluoro-2-oxo-4-[2-oxo-2-(piperidin-1-yl)acetamido]-1,2-dihydropyridin-1-yl)butyl)-N-{[4-(trifluoromethyl)pyridin-2-yl]methyl}-1,3,4-thiadiazole-2-carboxamide] |
| < 100 | 100 to 500 | O=C(CN1CCCCC1)Nc1ccn(CCCCc2nnc(C(=O)NCc3cc(C(F)(F)F)ccn3)s2)c(=O)c1F [Example 467, 5-(4-{3-fluoro-2-oxo-4-[2-(piperidin-1-yl)acetamido]-1,2-dihydropyridin-1-yl}butyl)-N-{[4-(trifluoromethyl)pyridin-2-yl]methyl}-1,3,4-thiadiazole-2-carboxamide] |
| < 100 | 100 to 500 | O=C(Nc1ccn(CCCCc2nnc(C(=O)NCc3cc(C(F)(F)F)ccn3)s2)c(=O)c1F)OC1CCC1 [Example 469, cyclobutyl N-(3-fluoro-2-oxo-1-{4-[5-({[4-(trifluoromethyl)pyridin-2-yl]methyl}carbamoyl)-1,3,4-thiadiazol-2-yl]butyl}-1,2-dihydropyridin-4-yl)carbamate] |
| < 100 | < 100 | O=C(Nc1ccn(CCC(F)Cn2cc(C(=O)NCc3cccc(OC(F)(F)F)c3)nn2)c(=O)n1)OCc1ccccc1 (centres unmarked) [Example 470, benzyl N-(1-{3-fluoro-4-[4-({[3-(trifluoromethoxy)phenyl]methyl}carbamoyl)-1H-1,2,3-triazol-1-yl]butyl}-2-oxo-1,2-dihydropyrimidin-4-yl)carbamate] |
| < 100 | < 100 | CC(C)COC(=O)Nc1ccn(CCC(F)Cn2cc(C(=O)NCc3cccc(OC(F)(F)F)c3)nn2)c(=O)n1 (centres unmarked) [Example 471, 2-methylpropyl N-(1-{3-fluoro-4-[4-({[3-(trifluoro-methoxy)phenyl]methyl}carbamoyl)-1H-1,2,3-triazol-1-yl]butyl}-2-oxo-1,2-dihydropyrimidin-4-yl)carbamate] |
| < 100 | 100 to 500 | O=C(NCc1cccc(OC(F)(F)F)c1)c1cn(CC(F)CCn2ccc(COc3cccc(F)c3)cc2=O)nn1 (centres unmarked) [Example 472, 1-{2-fluoro-4-[4-(3-fluorophenoxymethyl)-2-oxo-1,2-dihydropyridin-1-yl]butyl}-N-{[3-(trifluoromethoxy)phenyl]methyl}-1H-1,2,3-triazole-4-carboxamide] |
| < 100 | 100 to 500 | O=C(NCc1cccc(OC(F)(F)F)c1)c1cn(CC(F)CCn2ccc(COc3ccccc3F)cc2=O)nn1 (centres unmarked) [Example 473, 1-{2-fluoro-4-[4-(2-fluorophenoxymethyl)-2-oxo-1,2-dihydropyridin-1-yl]butyl}-N-{[3-(trifluoromethoxy)phenyl]methyl}-1H-1,2,3-triazole-4-carboxamide] |
| < 100 | 100 to 500 | O=C(NCc1cccc(OC(F)(F)F)c1)c1cn(CC(F)CCn2ccc(COc3c(F)cccc3F)cc2=O)nn1 (centres unmarked) [Example 474, 1-{4-[4-(2,6-difluorophenoxymethyl)-2-oxo-1,2-dihydropyridin-1-yl]-2-fluorobutyl}-N-{[3-(trifluoromethoxy)phenyl]methyl}-1H-1,2,3-triazole-4-carboxamide] |
| < 100 | 500 to 5000 | O=C(NCc1cccc(OC(F)(F)F)c1)c1cn(CC(F)CCn2ccc(COc3cccc(Cl)c3)cc2=O)nn1 (centres unmarked) [Example 475, 1-{4-[4-(3-chlorophenoxymethyl)-2-oxo-1,2-dihydropyridin-1-yl]-2-fluorobutyl}-N-{[3-(trifluoromethoxy)phenyl]methyl}-1H-1,2,3-triazole-4-carboxamide] |
| < 100 | 500 to 5000 | O=C(NCc1cccc(OC(F)(F)F)c1)c1cn(CC(F)CCn2ccc(COc3cccc(OC(F)(F)F)c3)cc2=O)nn1 (centres unmarked) [Example 476, 1-(2-fluoro-4-{2-oxo-4-[3-(trifluoromethoxy)phenoxymethyl]-1,2-dihydropyridin-1-yl}butyl)-N-{[3-(trifluoromethoxy)phenyl]methyl}-1H-1,2,3-triazole-4-carboxamide] |
| < 100 | 100 to 500 | O=C(NCc1cccc(OC(F)(F)F)c1)c1cn(CC(F)CCn2ccc(COc3ccc(Cl)cc3)cc2=O)nn1 (centres unmarked) [Example 477, 1-{4-[4-(4-chlorophenoxymethyl)-2-oxo-1,2-dihydropyridin-1-yl]-2-fluorobutyl}-N-{[3-(trifluoromethoxy)phenyl]methyl}-1H-1,2,3-triazole-4-carboxamide] |
| < 100 | 100 to 500 | O=C(NCc1cccc(OC(F)(F)F)c1)c1cn(CC(F)CCn2ccc(COc3ccc(F)cc3F)cc2=O)nn1 (centres unmarked) [Example 478, 1-{4-[4-(2,4-difluorophenoxymethyl)-2-oxo-1,2-dihydropyridin-1-yl]-2-fluorobutyl}-N-{[3-(trifluoromethoxy)phenyl]methyl}-1H-1,2,3-triazole-4-carboxamide] |
| 500 to 5000 | 500 to 5000 | O=C(NCc1cccc(OC(F)(F)F)c1)c1cn(CC(F)CCn2ccc(Cn3ccccc3=O)cc2=O)nn1 (centres unmarked) [Example 479, 1-(2-fluoro-4-{2-oxo-4-[(2-oxo-1,2-dihydropyridin-1-yl)methyl]-1,2-dihydropyridin-1-yl}butyl)-N-{[3-(trifluoromethoxy)phenyl]methyl}-1H-1,2,3-triazole-4-carboxamide] |

| Structure (SMILES) | IC50 [1] [nM] | EC50 (A549 cells) [nM] |
| --- | --- | --- |
| Cc1ccc(CNC(=O)c2nnc(CCCCn3ccc(NC(=O)OC4CCC4)c(F)c3=O)s2)cn1 [Example 468, Cyclobutyl(3-fluoro-1-(4-(5-(((6-methylpyridin-3-yl)methyl)carbamoyl)-1,3,4-thiadiazol-2-yl)butyl)-2-oxo-1,2-dihydropyridin-4-yl)carbamate] | 100 to 500 | 100 to 500 |

Source: patent US20160002204A1 (Board of Regents, The University of Texas System, priority 2014, published 2016)
